Results on three molecules are retold here after patent US6426065B1 (Clairol Incorporated, priority 2000, dated 2002).

Entries after “also recorded” stand apart in the source; their conditions may differ.

Series [1] can be described thus: Permanent wave evaluation of waving lotions on hair tresses (waving efficiency). The settings on record: for Percent Waving Efficiency / Tress Length (cm) Lt: amine 0.75M with 13.2 wt. % (0.8M) GMT, pH 7.5, 37° C. for 20 minutes; for Tress Length (cm) Lt: length of permed hair measured in the water, shorter = tighter curl. From the text:
The pH was adjusted using a 10 wt. % HCl solution. Tresses were rolled onto mandrels and evaluated using the permanent wave evaluation procedure that follows. Procedure for Permanent Wave Evaluation […] 1. A bundle of 16 inch long medium virgin brown hair was secured with beeswax by dipping approximately 2 inches of the root end of the bundled hair into melted wax for 5 seconds. When the wax is cool to the touch, it is shaped into a square and allowed to harden. 2. Hair is broken into smaller bundles, washed with a 10 wt. % sodium lauryl sulfate solution and then rinsed. 3. Hair is sectioned into tresses of 45 hairs and the waxed end is re-waxed to further secure the tress. The wax is allowed to dry, and a piece of tape is wrapped around it to provide a writing surface. […] 4. An 8 cm long, 1.25 cm diameter spiral rod with 25 turns is used. The waxed end of the hair is secured between the 9th and 10th turns using a rubber band. […] 5. A piece of tape, width 2.5 cm, is wrapped sideways around the bottom edge of the hair, covering the bottom 2.5 cm. A 3.4 g alligator clip is used to secure the tape. Using a piece of copper wire as a hook, a 6 oz. weight is hung from the tape at the bottom of the hair. The hair is rolled around the rod, using the weight to provide equal tension during rolling. The weight is removed after rolling, and the bottom tape is secured around the rod with a piece of Tygon tubing. 6. […] The solution completely covers the hair. The test tube is placed in a constant temperature water bath at 37° C. for 20 minutes. 7. The rod is removed and rinsed for 3 minutes under running tap water at approximately 30° C. and a flow rate of approximately 1 liter/minute. The rod is then placed into a new test tube with 10 mL of neutralizer (2 wt. % hydrogen peroxide, 0.05 wt. % polyquat-11, and phosphoric acid to pH 3.1). The rod is removed and rinsed with the 30° C. tap water for 2 minutes. 8. The tress is soaked in a bowl of 30° C. tap water for 5 minutes to allow complete oxidation. The tress is then carefully unrolled from the rod without tension, starting from the bottom and keeping the spiral configuration intact. The tape is cut off the hair using scissors while the hair is still on the rod. […] 10. […] A glass container (10×11.5×4 in) is used in which clear plastic rulers are glued along the front and back walls. A copper wire is secured across the top of the container. The rulers should be lined up to provide a way to accurately measure the hair. A copper wire hook is placed through the tape at the top of the tress and hung on the wire. […] Waving Efficiency After the procedure, the lengths of the tresses were measured in a water bath. The shorter the tress, the tighter the curl and the better the product. The curl is measured from the end of the wax to the end of the curl. [formula] where Li=initial length of tress from wax end to tip Lo=length of tress when wrapped on the rod Lt=length of permed hair from wax end to tip, measured in the water

A short description of series [2]: pKa and free amine of the alkalizer. The class given is physicochemical. Conditions: at a pH of about 7.5.

In the case of `N` [Ammonia], in series [1], the “Percent Waving Efficiency” value stood at 47.8% and the “Tress Length (cm) Lt” value is on record as 15.5 ± 1.2 cm.
Consider `NC(CO)(CO)CO` [Tris, tris(hydroxymethyl)amino methane], for which the “Tress Length (cm) Lt” value in series [1] amounted to 15.7 ± 0.9 cm. Besides, the “performance as alkalizer in waving lotion (in words)” value in series [1] (low pH waving lotion, in combination with a reducing agent) is “effective alkalizer; also recorded: better results than monoethanolamine”. The free amine entry in series [2] is given as “about 22%”.
Take `NCCO` [Monoethanolamine]: in series [1], the “Percent Waving Efficiency” value was 45.4% and the “Tress Length (cm) Lt” value came out at 16.1 ± 0.5 cm. In series [2], the free amine result is recorded as “one”. In addition, the free amine in series [2] (listed as monoethanolamine) is given as 1%.
